{
  "source": "paper PMC4440699",
  "about": "(MedChemComm, 2014)",
  "key": {"MV-4-11 leukemia cells": {"tested_on": "MV-4-11 leukemia cells", "assay": "Growth inhibition of cultured MV-4-11 leukemia cells", "type": "cell-based", "details": "for growth inhibitor activity in the MV-4-11 cell line: 24 hours exposure, 1 to 100 μM"}, "Solubility observations": {"assay": "Solubility observations", "type": "physicochemical", "details": "greater concentration required more than 1% DMSO"}, "HDAC1": {"target": "HDAC1 (Homo sapiens, UniProt Q13547)", "sequence (Q13547 whole entry, canonical isoform)": "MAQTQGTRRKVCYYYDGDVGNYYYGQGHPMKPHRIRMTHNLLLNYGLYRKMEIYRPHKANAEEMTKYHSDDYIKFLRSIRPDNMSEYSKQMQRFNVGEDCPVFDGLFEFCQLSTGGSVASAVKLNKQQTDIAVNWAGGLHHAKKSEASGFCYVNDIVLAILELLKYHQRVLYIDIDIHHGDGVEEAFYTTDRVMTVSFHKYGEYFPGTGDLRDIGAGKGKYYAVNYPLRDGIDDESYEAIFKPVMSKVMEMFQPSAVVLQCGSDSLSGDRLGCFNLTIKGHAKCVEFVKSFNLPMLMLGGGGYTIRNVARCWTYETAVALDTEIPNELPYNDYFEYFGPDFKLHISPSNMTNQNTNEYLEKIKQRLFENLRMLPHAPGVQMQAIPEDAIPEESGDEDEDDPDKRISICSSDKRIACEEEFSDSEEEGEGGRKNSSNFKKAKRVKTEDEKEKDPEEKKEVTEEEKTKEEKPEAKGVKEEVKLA", "assay": "HDAC1 inhibition, human recombinant HDAC isoform survey", "type": "biochemical"}, "acetylated H3K9": {"tested_on": "acetylated H3K9", "details": "MV-4-11 cells"}, "p21^WAF1/CIP1": {"tested_on": "p21^WAF1/CIP1", "assay": "p21WAF1/CIP1 levels in MV-4-11 leukemia cells by Western blotting", "type": "cell-based", "details": "MV-4-11 cells"}, "HDAC8": {"target": "T1, HDAC8 (Homo sapiens, UniProt Q9BY41)", "T1 sequence (Q9BY41 1-377)": "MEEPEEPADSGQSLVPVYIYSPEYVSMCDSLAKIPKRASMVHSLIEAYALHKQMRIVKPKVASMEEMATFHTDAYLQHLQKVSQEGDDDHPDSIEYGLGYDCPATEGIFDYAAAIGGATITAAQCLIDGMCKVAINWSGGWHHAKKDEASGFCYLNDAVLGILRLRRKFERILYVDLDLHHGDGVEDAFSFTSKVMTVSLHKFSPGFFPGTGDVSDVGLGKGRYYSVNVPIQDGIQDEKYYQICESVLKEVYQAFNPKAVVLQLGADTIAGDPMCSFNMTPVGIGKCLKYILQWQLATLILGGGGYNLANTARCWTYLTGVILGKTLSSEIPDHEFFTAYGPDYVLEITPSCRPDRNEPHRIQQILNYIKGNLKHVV", "assay": "HDAC8 inhibition, human recombinant HDAC isoform survey", "type": "biochemical"}, "[1]": {"assay": "Zinc binding affinity by isothermal calorimetry", "details": "ITC, 25 °C"}, "HDAC10": {"target": "T2, HDAC10 (Homo sapiens, UniProt Q969S8)", "T2 sequence (Q969S8 1-669)": "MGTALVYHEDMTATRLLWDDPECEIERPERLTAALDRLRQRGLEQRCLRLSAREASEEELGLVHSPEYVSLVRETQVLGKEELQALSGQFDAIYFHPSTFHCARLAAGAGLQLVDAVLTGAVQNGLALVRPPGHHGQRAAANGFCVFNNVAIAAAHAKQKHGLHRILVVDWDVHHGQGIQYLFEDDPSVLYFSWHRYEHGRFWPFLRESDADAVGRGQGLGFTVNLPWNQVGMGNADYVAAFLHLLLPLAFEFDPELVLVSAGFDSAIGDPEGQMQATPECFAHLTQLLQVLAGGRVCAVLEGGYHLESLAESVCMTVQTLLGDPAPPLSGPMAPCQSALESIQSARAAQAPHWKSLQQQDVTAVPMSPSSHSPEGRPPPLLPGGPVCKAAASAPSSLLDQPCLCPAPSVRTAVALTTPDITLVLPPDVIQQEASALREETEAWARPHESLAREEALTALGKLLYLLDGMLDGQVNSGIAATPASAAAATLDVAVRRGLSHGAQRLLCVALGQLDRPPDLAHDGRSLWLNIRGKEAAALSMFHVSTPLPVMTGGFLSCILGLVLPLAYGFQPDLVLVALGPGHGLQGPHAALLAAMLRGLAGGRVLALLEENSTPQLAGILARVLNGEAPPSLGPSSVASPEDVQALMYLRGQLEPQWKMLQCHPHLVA", "assay": "HDAC10 inhibition, human recombinant HDAC isoform survey", "type": "biochemical", "details": "from % inhibition at 20 μM"}},
  "data": [
    {"molecule": "O=C(NC(c1ccccc1)c1ccccc1)c1coc(-c2ccccc2O)n1", "note": "[Compound 10]", "values": [
      {"measurement": "difference in cellular IC50 value against MV4-11 cells between SAHA and compound 10", "setting": "MV-4-11 leukemia cells; SAHA 0.7 μM vs 10 7.5 μM", "value": 10.7, "unit": "fold"},
      {"measurement": "solution concentration attainable without more than 1% DMSO", "setting": "Solubility observations", "value": "≤ 20", "unit": "µM"},
      {"measurement": "IC50", "setting": "HDAC1", "value": "< 20", "unit": "µM"},
      {"measurement": "amount of acetylated H3K9 induced relative to 0.5 μM of SAHA", "setting": "acetylated H3K9", "value": "comparable amount"},
      {"measurement": "concentration producing an increase in H3K9 acetylation equivalent to 0.5 μM SAHA", "setting": "acetylated H3K9; Western blot", "value": 2.5, "unit": "µM"},
      {"measurement": "concentration with measurable increase in cellular levels of acetylated H3K9", "setting": "acetylated H3K9; Western blot", "value": "≥ 2.5", "unit": "µM"},
      {"measurement": "change in H3K9 acetylation", "setting": "acetylated H3K9; concentrations between 1.0 and 10 μM", "value": "dose-dependent change in acetylation"},
      {"measurement": "amount of p21Waf1/CIP1 induced relative to 0.5 μM of SAHA", "setting": "p21^WAF1/CIP1", "value": "comparable amount"},
      {"measurement": "p21^WAF1/CIP1 expression", "setting": "p21^WAF1/CIP1; concentrations between 1.0 and 10.0 μM", "value": "dose-dependent increase"},
      {"measurement": "inhibitory activity against HDAC8", "setting": "HDAC8", "value": "very poor inhibitory activity"},
      {"measurement": "ΔG, binding to Zn^++", "setting": "[1]", "value": -21.35, "unit": "kJ/mol"},
      {"measurement": "KA, binding to Zn^++", "setting": "[1]; compound in methanol, zinc in 50mM HEPES pH 7.0", "value": "4,937 M^-1"}
    ]},
    {"molecule": "O=C(NCCC(c1ccccc1)c1ccccc1)c1coc(-c2ccccc2O)n1", "note": "[Compound 12]", "values": [
      {"measurement": "growth inhibitor activity in the MV-4-11 cell line", "setting": "MV-4-11 leukemia cells", "value": "inactive"}
    ]},
    {"molecule": "O=C(Nc1ccc(-c2ccccc2)cc1)c1coc(-c2ccccc2O)n1", "note": "[Compound 13]", "values": [
      {"measurement": "growth inhibitor activity in the MV-4-11 cell line", "setting": "MV-4-11 leukemia cells", "value": "inactive"}
    ]},
    {"molecule": "O=C(NCc1ccc(-c2ccccc2)cc1)c1coc(-c2ccccc2O)n1", "note": "[Compound 14]", "values": [
      {"measurement": "growth inhibitor activity in the MV-4-11 cell line", "setting": "MV-4-11 leukemia cells", "value": "inactive"}
    ]},
    {"molecule": "O=C(NCCCCNC(=S)NCCC(c1ccccc1)c1ccccc1)c1coc(-c2ccccc2O)n1", "note": "[Compound 19]", "values": [
      {"measurement": "isoform selectivity", "setting": "HDAC10", "value": "moderately selective for HDAC10"}
    ]},
    {"molecule": "O=C(Nc1ccccc1)c1ccc(CNC(=O)c2coc(-c3ccccc3O)n2)cc1", "note": "[Compound 23]", "values": [
      {"measurement": "isoform selectivity", "setting": "HDAC10", "value": "moderately selective for HDAC10"}
    ]},
    {"molecule": "O=C(CNC(=O)c1coc(-c2ccccc2O)n1)Nc1ccccc1", "note": "[Compound 24]", "values": [
      {"measurement": "isoform selectivity", "setting": "HDAC10", "value": "moderately selective for HDAC10"}
    ]}
  ]
}
